Data from PubChem BioAssay AID179 (DTP/NCI, 2004).
The source made the active and inactive calls.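 The calls were made as follows: active = compounds giving half or more protection of infected cells from virus-caused growth loss, again on retest; inactive = the rest.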

System: CEM cells HIV-1 protection, formazan growth assay
Test: NCI AIDS Antiviral Assay
Conditions: for IC50: measured here: growth of uninfected CEM cells
Method in brief: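 CEM (human) cells, HIV-1 infected vs uninfected, 5-point dosing, formazan growth read-out. Retest threshold 50% protection.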

Row | Compound | EC50 [µM] | IC50 [µM] | outcome
1 | Cc1cc(=O)c2cc3nc(-c4cccnc4)oc3c(Br)c2o1 | 182 | > 200 | 
2 | O=C1C(=Cc2c[nH]c3ccccc23)C(=O)c2ccccc21 | > 200 | 191 | 
3 | COP(=O)(CC(=O)CCCCCOC1CCCCO1)OC (configuration not stated) |  |  | inactive
4 | O=C1c2c([N+](=O)[O-])cc(S(=O)(=O)O)c(O)c2C(=O)c2c([N+](=O)[O-])cc(S(=O)(=O)O)c(O)c21 |  |  | inactive
5 | CC(=NCCN(CCN=C(C)c1c(O)cc(C)oc1=O)CCN=C(C)c1c(O)cc(C)oc1=O)c1c(O)cc(C)oc1=O | > 200 | > 200 | 
6 | C/C(N=NS(=O)(=O)c1ccccc1)=C1\C=CC=CN1O |  |  | inactive
7 | O=c1c2cccnc2ncn1CCN1CCOCC1 |  |  | inactive
8 | CCOC(=O)/C(C)=C(/O)C(=O)OCC | 214 | 1120 | 
9 | O=C(O)CCCCC1CCSS1 (configuration not stated) | 186 | > 200 | 
10 | CCOC(=O)/C=C/c1ccc(Br)cc1 | > 28.2 | > 28.2 | 
11 | COc1cc(C=O)c(-c2c(C=O)ccc3c2OCO3)c(OC)c1OC | > 135 | 20 | 
12 | COC(=O)C1(Cc2ccc3c(c2)CCC3)Cc2cc3c(cc2C1)CCC3 | > 200 | > 200 | 
13 | O=C(Nc1ccc(Sc2ccc(N=Nc3c(O)c(S(=O)(=O)O)cc4cc(S(=O)(=O)O)ccc34)cc2)cc1)c1ccc(N=Nc2ccc3c(S(=O)(=O)O)cccc3c2O)cc1 |  |  | inactive
14 | CCOC(=O)C1SC(=Nc2ccc(C)c(C)c2)N=C1C (configuration not stated) | > 18.2 | > 18.2 | 
15 | CCC1Sc2cc(OC)cc([N+](=O)[O-])c2NC1=O (configuration not stated) | > 200 | > 200 | 
16 | O=S1(=O)OC2(c3ccccc31)c1cc(Br)c(O)c(O)c1Oc1c2cc(Br)c(O)c1O | > 39.8 | 36.3 | 
17 | CC(=O)NNc1nc(C)c(C(=O)NNC(=O)C(=O)Nc2c(C)cccc2C)s1 | > 89.1 | 28.2 | 
18 | O=C1NC2C(NC(=O)N2Cl)N1Cl (configuration not stated) | > 200 | > 200 | 
19 | Brc1cccc(C2ON=C(c3ccccc3)N2C23CC4CC(CC(C4)C2)C3)c1 (configuration not stated) | > 200 | > 200 | 
20 | C(/Cc1ccc2c(c1)OCO2)=N\NC1=NCCN1 | > 200 | 117 | 

Row | Compound | EC50 [µM] | IC50 [µM] | outcome
21 | COc1ccc(/C=C/C(=O)c2sc(-n3nc(-c4ccccc4)cc3-c3ccccc3)nc2C)cc1 | > 11 | > 11 | 
22 | CN(C)[C@@H]1C(=O)C(C(=O)NCNC(CO)(CO)CO)=C(O)[C@@]2(O)C(=O)C3=C(O)c4c(O)cccc4[C@@](C)(O)[C@H]3C[C@@H]12 | > 42.7 | 33.9 | 
23 | O=C(OC1(c2ccccc2)OC(=O)c2ccccc21)c1ccccc1C(=O)c1ccccc1 (configuration not stated) |  |  | inactive
24 | O=C(CCCN1CCC2(CC1)C(=O)NCN2c1ccccc1)c1ccccc1 | > 200 | 34.7 | 
25 | CCOC(=O)c1cc(N/N=C2/CCCNC2=O)c[nH]1 | > 200 | 41.7 | 
26 | COC(=O)c1ccc(NCC2=CC(=O)C=CC2=O)cc1 | > 200 | 1 | 
27 | CC(=O)NC(CC(C)C(C)=O)C(=O)O (configuration not stated) | > 200 | > 200 | 
28 | BrCc1cccc(C[P+](c2ccccc2)(c2ccccc2)c2ccccc2)c1 | > 200 | 1.17 | 
29 | NC(=O)c1nnsc1NN=O | > 200 | > 200 | 
30 | Cn1c(O)c(N=NC(=O)Cc2c[nH]c3ccccc23)c2ccccc21 | > 200 | > 200 | 
31 | C[Si](C)(C)C1=C([Si](C)(C)C)C(Cl)(Cl)C1=O | > 20 | 3.98 | 
32 | COc1c(OC)c(C=O)c2c(OC)c(-c3c(C)cc4c(C(C)C)c(OC)c(OC)c(C=O)c4c3OC)c(C)cc2c1C(C)C |  |  | inactive
33 | COc1ccc(C2OC(N)=C(C#N)C3=C2CCCC3C)cc1OC (configuration not stated) | > 200 | > 200 | 
34 | NC(=O)c1ncn(C2OC(CO)C(F)C2O)c1N (configuration not stated) | > 200 | > 200 | 
35 | NC(=O)Nc1c([N+](=O)[O-])cc(C(F)(F)F)cc1[N+](=O)[O-] |  |  | inactive
36 | COc1ccc(C2CCC(=O)CC2(O)C(=O)O)cc1 (configuration not stated) | > 251 | > 251 | 
37 | CC(C)(C)c1cc(/C=C2\CCC/C(=C\c3cc(C(C)(C)C)c(O)c(C(C)(C)C)c3)C2=O)cc(C(C)(C)C)c1O | > 200 | > 200 | 
38 | CCCC[C@H]1[C@@H](OCOc2ccccc2)COC(=O)N1[C@H](C)c1ccccc1 | > 200 | 21.4 | 
39 | NC(=O)c1ccccc1NC(=O)C(=O)C(c1cnc2ccc([N+](=O)[O-])cc2n1)[N+](=O)[O-] (configuration not stated) | > 61.7 | > 61.7 | 
40 | N#CC(C#N)=Cn1ccc(=O)[nH]c1=S | > 200 | > 200 | 

Row | Compound | EC50 [µM] | IC50 [µM] | outcome
41 | N#CC1=C2Oc3ccccc3N2C(c2ccccc2)C(C#N)=C1N (configuration not stated) | > 200 | > 200 | 
42 | COC(=O)C1=C(O)c2cc(OC)c(OC)c(OC)c2C(c2ccc3c(c2)OCO3)[C@@H]1C(=O)OC (some centres not stated) |  |  | inactive
43 | COC(=O)c1cc(C)ccc1/C=C1\Cc2c(C)cc(C)cc2C1=O |  |  | inactive
44 | O=C1CS/C(=N/N=C/c2nc3ccccc3c(=O)n2-c2ccc(Cl)cc2)N1c1ccccc1 | > 38 | > 38 | 
45 | CCOC(=O)C12CCCC1(O)N(NC(=O)c1cccc(Cl)c1)C(C)=C2C(=O)OC (configuration not stated) | > 427 | 123 | 
46 | CCOC(=O)CCC(NC(=O)c1ccc(N=Cc2nc3ccccc3nc2-c2ccccc2)cc1)C(=O)OCC (configuration not stated) | > 12.6 | > 12.6 | 
47 | CCN(CC)Cc1cc(Nc2c3ccccc3nc3c2[nH]c2ccccc23)cc(CN(CC)CC)c1O | > 427 | 0.269 | 
48 | Cc1cc(=S)oc2c3c(ccc12)OC(C)(C)[C@H](OC(=O)C12CCC(C)(C(=O)O1)C2(C)C)[C@@H]3OC(=O)C12CCC(C)(C(=O)O1)C2(C)C (some centres not stated) | 0.0575 | 20 | 
49 | CCOC(=O)C(=Cc1cccc(Br)c1)C(=O)OCC | > 759 | 468 | 
50 | O=NN(CC1(O)OCC(O)C(O)C1O)C(Cc1c[nH]c2ccccc12)C(=O)O (configuration not stated) |  |  | inactive
51 | Oc1[nH]c2ccccc2c1N=NC(=S)N1CCCCC1 | > 200 | 1.02 | 
52 | CC(=O)OC12CC[N+]3(C)CCCCC3C1=Nc1ccccc12 (configuration not stated) | > 589 | 479 | 
53 | CC1=N/C(=C\c2cccc(C#N)c2)C(=O)O1 | > 170 | 97.7 | 
54 | CSCC1Cc2c(cc3c(c2O)C(=O)c2ccccc2C3=O)O1 (configuration not stated) |  |  | inactive
55 | NC1=NC2OC(CO)C(O)C2O1 (configuration not stated) | > 200 | > 200 | 
56 | Cc1ccc(NC(=O)CC(=O)n2nc(-c3ccccc3)c(N=Nc3ccc(Cl)cc3)c2-c2ccccc2)cc1 | > 9.77 | > 9.77 | 
57 | CCOC(=O)CCN1C(=O)c2c(NC(=O)C(=O)O)cccc2S1(=O)=O | > 200 | > 200 | 
58 | COCN1C(=O)[C@@H]2CCCN2C(=O)c2cc(N)ccc21 | > 200 | > 200 | 
59 | O=c1[nH]ccc2c1ccn2C1CC(O)C(CO)O1 (configuration not stated) |  |  | inactive
60 | COCC(C)(C)N=CN1Cc2cc3ccccc3nc2C1 | > 178 | > 178 | 
